Tests used:
[1] = tested on: Stop-POST5 complex (RFC-dependent termination); assay: smTIRF assay of RFC-dependent peptide and tRNA release; format: biochemical, shrimp (Artemia salina)
Procedure: Immobilization of ribosome Stop-POST 5 complexes. PEGylated flow chambers were incubated in 0.5 mg/ml streptavidin for 5 mins and washed with Buffer 4. Biotinylated Stop-POST5 containing FK(atto647)VRQ-tRNA^Gln (Cy3) in the P-site, was formed at room temperature by incubating Stop-POST4, eEF1A, GTP, and Gln-(Cy3)tRNA^Gln for 5 mins and then injected into the streptavidin-coated slide chamber. After a 5 min incubation, excess unbound ribosome was flowed out. Then eRF1/eRF3±TRIDs was injected dynamically at 3 sec while recording. The injection dead time was subtracted for each particle.
Single-molecule fluorescence imaging. All sm-TIRF studies were carried out at 24° C. All dilutions, complex formation, and single-molecule imaging were carried out in Buffer 4 with an added enzymatic oxygen scavenging system of 2 mM protocatechuic acid (PCA), 50 nM protocatechunate 3,4 dioxygenase (PCD, Sigma Aldrich), 1 mM cyclooctatetraene (COT, Sigma Aldrich), 1 mM 4-nitrobenzyl alcohol (NBA, Sigma Aldrich), and 1.5 mM 6-hydroxy-2,5,7,8-tetramethyl-chromane-2-carboxylic acid (Trolox, Sigma-Aldrich) (Flis et al., Cell reports, 25(10), 2676-2688 (2018).
Image stacks were recorded at 100 ms frame rate on a custom-built objective-type total internal reflection fluorescence (TIRF) microscope based on a commercial inverted microscope (Eclipse Ti-E, Nikon) and capable of performing alternating-laser excitation (ALEX) between 532 nm and 640 nm laser beams using an acousto-optic tunable filter (AOTF, Chen et al., 2011). For the time-lapse experiment, timing of the movies, programmed into NIS-Elements (Nikon) microscope software, were recorded by illuminating the sample for 50-20 frames at 10 frames per s with 15 s or […] intervening dark intervals. Video recording was started and then eRF1/eRF3±TRIDs was injected from a triggered syringe pump at 3 sec while recording. The injection dead time was subtracted for each particle. Triggering of the shutters, AOTF, and pump was synchronized using LabView scripts driven from the camera exposure signal.
Data analysis. Collected movies were analyzed by a custom-made software program developed as an ImageJ plugin (Chen et al., Mol. Cell, 42, 367-377 (2011)), and further analyzed using Python. Distributions of peptide and tRNA dissociation times were fit to eq (5), using maximum likelihood estimation (Bevington and Robinson. Data Reduction and Error Analysis for the Physical Sciences. New York: McGraw-Hill, (2002); Woody et al., Biophys. J. 111, 273-282 (2016)), where P is the probability density.
smTIRF results using Atto(pep)-Cy-Stop-POST5 attached to surface-immobilized ribosomes. Although the distance between the two fluorophores is not close enough to produce FRET, fluorescent pairs could be identified by co-localization on the slide under alternating 532 nm and 640 nm total internal reflection fluorescence (TIRF) illumination. This permits near-simultaneous monitoring of the dynamics of peptide and P-site tRNA release from the Stop-POST5 complex following RFC binding.
To reduce photobleaching of each fluorophore, time-lapse movies were recorded with bursts of 20 or 50 frames at 100 ms frame intervals interleaved by 20 s intervals with the lasers shuttered. Total recording time for each trial was 20 min.
FIG. 8A and FIG. 8C show typical frame by frame recordings indicating a loss of signal for both labeled peptide and labeled tRNA after the addition of the RFC to Atto(pep)-Cy(tRNA)-Stop-POST5. Either peptide (a) or tRNA (b) can dissociate first, in approximately equal proportions. Photobleaching of Cy3-labeled tRNA and Atto647-labeled peptide in the absence of eRF1/eRF3 was much slower (FIG. 8E and FIG. 8F). Under the time lapse illumination employed, mean lifetimes for Atto647-peptide and Cy3-tRNA at 0.32 μM eRF1 and 2 μM eRF3 were each 2.45 min. […]

[2] = tested on: Stop-POST5 complex; assay: [3H]-AzAt photoaffinity labeling of Stop-POST5 complex; format: binding, shrimp (Artemia salina)
Procedure: Photoaffinity labeling with [^3H]-AzAt. Samples in Buffer 4, typically 20 μL, were incubated in the dark (20 min for Stop-POST5 and 80S-IRES complexes, 2 min for release factors) with various concentrations of [^3H]-AzAt at 37° C., transferred to a UV-transparent cuvette which was covered with parafilm to prevent evaporation, and irradiated in a Rayonet photochemical reactor equipped with 300 nm UV lamps for 5 min at room temperature. This was followed by quenching with 2 mM DTT at 37° C. for 5 min under ambient light. The irradiation time gave complete photolysis of the phenyl azide moiety in AzAt. Photolysis was also complete at 5 min in the presence of 1 mM ataluren, ruling out internal filtering effects.
Stop-POST5 and 80S-IRES complexes. 1 μM solutions of either Stop-POST5 or 80S-S.IRES, determined by A260, were photolabeled by [^3H]-AzAt. The sample was then either directly purified by ultracentrifugation through a sucrose cushion to determine the photoincorporation stoichiometry in the complex, or subjected to phenol/chloroform extraction to determine the photoincorporation stoichiometry in the total RNA. To determine the photoincorporation background arising from incomplete removal of noncovalently bound photolyzed AzAt, AzAt was prephotolysed for 5 min before adding to the complex, followed by the 20 min incubation in dark at 37° C. and subsequent sucrose cushion purification or RNA extraction as described above.

[3] = 0.081 μM RFC, 1000 μM ataluren added 4-25 s later, 24° C.

SMILES: O=C(O)c1cccc(-c2noc(-c3ccccc3F)n2)c1 [Ataluren]
- mode of inhibition of RFC [1]: apparent competitive inhibitor
- effect on CC value of peptide and tRNA lifetimes ([1]; 0.032 μM RFC and 1 mM ataluren, FIG. 10C): did not change the CC value
- rate constant for elimination of ataluren's inhibitory effect after RFC addition, peptide [1, 3]: 9.6 ± 2.6 min⁻¹
- rate constant for elimination of ataluren's inhibitory effect after RFC addition, tRNA [1, 3]: 10.8 ± 3.6 min⁻¹
- effect on Vmax values at high RFC concentration ([1]; 200, 500, 1000 μM ataluren): little affected
- KA, inhibition of pentapeptide release rate constants ([1]; measured by both smTIRF and fluorescence anisotropy, eRF1 32 nM, FIG. 9H): 250 ± 20 µM
- KA, inhibition of tRNA release ([1]; smTIRF): 180 ± 10 µM
- effects on the rates of peptide and tRNA release ([1]; steps after tRNA-peptide bond cleavage): no direct effects

SMILES: [N-]=[N+]=Nc1ccc(-c2nc(-c3cccc(C(=O)O)c3)no2)cc1 [AzAt]
- saturation labeling of Stop-POST5 [2]: 1.2 /Stop-POST5
- share of photoincorporation found in RNA components of Stop-POST5 [2]: More than 80%
- KA, AzAt photoincorporation into Stop-POST5 ([2]; fit to eq (1), FIG. 2B): 120 ± 60 µM
- share of RNA photoincorporation found within 18S and 26S rRNA ([2]; urea-PAGE analysis): > 90%

From patent US20230235374A1, “High Throughput Assays for Detecting Translation Readthrough Inducers” (The Trustees of the University of Pennsylvania, priority 2021, published 2023)
